Counter-ions that a name gives are not always drawn.
Key:
Type in all cases: physicochemical
[1] = TGA and DSC/mDSC thermal analysis (characterization of forms)
Protocol: In salt screening and evaluation and in polymorph study, TGA was performed using a TA Q500, TA Q5000 or Discovery 5500 TGA from TA Instruments. DSC or mDSC was performed using a TA Q200/Q2000 or Discovery 2500 DSC from TA Instruments.

[2] = Bulk density, tap density and Carr index (flowability and compressibility); details: for Carr index: (ρ1−ρ0)/ρ1; for Tapped density: tapped 200 times
Protocol: Bulk density was determined by adding appropriate amount (m) of material into a 5 mL graduate cylinder and recording its apparent volume (v0). The bulk density was obtained by dividing the amount of material by its apparent volume of the unsettled material (ρ0=m/v0). For tap density, the cylinder was then tapped for 200 times. The tap density was then calculated by dividing the amount of material by its final tapped volume (ρ1=m/v1). Carr index=(ρ1−ρ0)/ρ1.
(§1) The results of amorphous freebase, Freebase Type F, Fumarate Type B and Fumarate Type E for flowability and compressibility were summarized in Table 30. Generally, powders with smaller Karl index would show better compressibility and flowability. And powders with smaller angle of repose would show better flowability.

[3] = Angle of repose (flowability)
Source text: Form the angle of repose on a fixed base with a retaining lip to retain a layer of powder on the base. Carefully build up a symmetrical cone of powder. Determine the angle of repose by measuring the height (h) and base radius (r) of the cone of powder and calculating the angle of repose a from the following equation α=tan^−1(h/r).
as §1

[4] = Solid state stability, 40° C./75% RH/open for 1 month (XRPD, HPLC purity)
Protocol: (§2) An Agilent 1260 HPLC instrument was utilized and detailed chromatographic conditions for purity and solubility analysis were listed in Table 6.
To evaluate the solid state stability of the selected forms (amorphous freebase, Freebase Type F, Fumarate Type A and Fumarate Type B) samples were stored under 40° C./75% RH/open for 1 month. Stability samples were characterized by XRPD to check any solid form change and by HPLC to check purity change.

[5] = Kinetic solubility in FaSSIF; details: 37° C.
Protocol: as §2
Kinetic solubility of amorphous freebase and Fumarate Type B/E was measured in FaSSIF to evaluate the solubility. […] After centrifugation, supernatants were collected for HPLC tests.

[6] = Equilibrium solubility in H2O; details: 37° C., stirred 24 hours
Protocol: as §2
About 5˜10 mg of solids were suspended in H2O to get a mixture. The suspensions were stirred for 24 hours, followed by centrifugation and filtration to obtain supernatants for HPLC test.

[7] = Equilibrium solubility in pH 4.5 buffer; details: 37° C., stirred 24 hours
Protocol: as §2
About 5˜10 mg of solids were suspended in pH 4.5 buffer to get a mixture. The suspensions were stirred for 24 hours, followed by centrifugation and filtration to obtain supernatants for HPLC test.

[8] = Equilibrium solubility in pH 6.8 buffer; details: 37° C., stirred 24 hours
Protocol: as §2
About 5˜10 mg of solids were suspended in pH 6.8 buffer to get a mixture. The suspensions were stirred for 24 hours, followed by centrifugation and filtration to obtain supernatants for HPLC test.

Hygroscopicity by DVS = details: 80% RH, 25° C.
Protocol: DVS is measured via a SMS (Surface Measurement Systems) DVS Intrinsic. The relative humidity at 25° C. is calibrated against deliquescence point of LiCl, Mg(NO3)2 and KCl.
DVS isotherm plot was collected at 25° C. to investigate the selected solid forms stability as a function of humidity. Compared with amorphous freebase, the hygroscopicity of Freebase Type B, Fumarate Type A, Fumarate Type B and Fumarate Type E was lower under 80% RH/25° C.

[9] = Mechanical stability (XRPD form change after grinding and tableting)
Protocol: Mechanical stability of the solid forms was evaluated by monitoring the XRPD form change after grinding (˜5 min) and tableting (˜234 Mpa).

[10] = crystalline salts, listed as HCl salt Type A
[11] = crystalline salts, listed as HCl salt Type B

COc1ccc2ncnc(Nc3ccc(Oc4cc5ncnn5cn4)c(C)c3)c2c1O[C@@H]1CCN(C)CC1(F)F [HCl Salt Type A, (R)-N-(4-([1,2,4]triazolo[1,5-c]pyrimidin-7-yloxy)-3-methylphenyl)-5-((3,3-difluoro-1-methylpiperidin-4-yl)oxy)-6-methoxyquinazolin-4-amine]
TGA weight loss (150° C., %) [1, 10]: 8.8% | DSC endotherm (° C., peak) [1, 10]: 110.0 °C

COc1ccc2ncnc(Nc3ccc(Oc4cc5ncnn5cn4)c(C)c3)c2c1O[C@@H]1CCN(C)CC1(F)F [Adipate Type A, (R)-N-(4-([1,2,4]triazolo[1,5-c]pyrimidin-7-yloxy)-3-methylphenyl)-5-((3,3-difluoro-1-methylpiperidin-4-yl)oxy)-6-methoxyquinazolin-4-amine]
TGA weight loss (150° C., %) ([1]; crystalline salts): 3.0% | DSC endotherm (° C., peak) ([1]; crystalline salts): 106.7 °C

COc1ccc2ncnc(Nc3ccc(Oc4cc5ncnn5cn4)c(C)c3)c2c1O[C@@H]1CCN(C)CC1(F)F [Freebase Type A, (R)-N-(4-([1,2,4]triazolo[1,5-c]pyrimidin-7-yloxy)-3-methylphenyl)-5-((3,3-difluoro-1-methylpiperidin-4-yl)oxy)-6-methoxyquinazolin-4-amine]
DSC endotherm (° C., peak) ([1]; free base forms): 71.3 °C | TGA weight loss (%, temp.) ([1]; free base forms, to 140° C.): 9.9 (to 140° C.) %

COc1ccc2ncnc(Nc3ccc(Oc4cc5ncnn5cn4)c(C)c3)c2c1O[C@@H]1CCN(C)CC1(F)F [HCl Salt Type B, (R)-N-(4-([1,2,4]triazolo[1,5-c]pyrimidin-7-yloxy)-3-methylphenyl)-5-((3,3-difluoro-1-methylpiperidin-4-yl)oxy)-6-methoxyquinazolin-4-amine]
TGA weight loss (150° C., %) [1, 11]: 2.3% | DSC endotherm (° C., peak) [1, 11]: 241.7 °C

COc1ccc2ncnc(Nc3ccc(Oc4cc5ncnn5cn4)c(C)c3)c2c1O[C@@H]1CCN(C)CC1(F)F [Mesylate Type B, (R)-N-(4-([1,2,4]triazolo[1,5-c]pyrimidin-7-yloxy)-3-methylphenyl)-5-((3,3-difluoro-1-methylpiperidin-4-yl)oxy)-6-methoxyquinazolin-4-amine]
TGA weight loss (150° C., %) ([1]; crystalline salts): 7.6% | DSC endotherm (° C., peak) ([1]; crystalline salts): 63.4 °C

COc1ccc2ncnc(Nc3ccc(Oc4cc5ncnn5cn4)c(C)c3)c2c1O[C@@H]1CCN(C)CC1(F)F [Amorphous Fumarate, (R)-N-(4-([1,2,4]triazolo[1,5-c]pyrimidin-7-yloxy)-3-methylphenyl)-5-((3,3-difluoro-1-methylpiperidin-4-yl)oxy)-6-methoxyquinazolin-4-amine]
TGA weight loss (%, temp.) ([1]; fumarate forms, to 150° C.): 3.6 (to 150° C.) %

COc1ccc2ncnc(Nc3ccc(Oc4cc5ncnn5cn4)c(C)c3)c2c1O[C@@H]1CCN(C)CC1(F)F [L-tartrate Type A, (R)-N-(4-([1,2,4]triazolo[1,5-c]pyrimidin-7-yloxy)-3-methylphenyl)-5-((3,3-difluoro-1-methylpiperidin-4-yl)oxy)-6-methoxyquinazolin-4-amine]
TGA weight loss (150° C., %) ([1]; crystalline salts): 3.7%

COc1ccc2ncnc(Nc3ccc(Oc4cc5ncnn5cn4)c(C)c3)c2c1O[C@@H]1CCN(C)CC1(F)F [Mesylate Type A, (R)-N-(4-([1,2,4]triazolo[1,5-c]pyrimidin-7-yloxy)-3-methylphenyl)-5-((3,3-difluoro-1-methylpiperidin-4-yl)oxy)-6-methoxyquinazolin-4-amine]
TGA weight loss (150° C., %) ([1]; crystalline salts): 10.2% | DSC endotherm (° C., peak) ([1]; crystalline salts): 65.1 °C

COc1ccc2ncnc(Nc3ccc(Oc4cc5ncnn5cn4)c(C)c3)c2c1O[C@@H]1CCN(C)CC1(F)F [Phosphate Type A, (R)-N-(4-([1,2,4]triazolo[1,5-c]pyrimidin-7-yloxy)-3-methylphenyl)-5-((3,3-difluoro-1-methylpiperidin-4-yl)oxy)-6-methoxyquinazolin-4-amine]
TGA weight loss (150° C., %) ([1]; crystalline salts): 9.5%

COc1ccc2ncnc(Nc3ccc(Oc4cc5ncnn5cn4)c(C)c3)c2c1O[C@@H]1CCN(C)CC1(F)F [Freebase Type G, (R)-N-(4-([1,2,4]triazolo[1,5-c]pyrimidin-7-yloxy)-3-methylphenyl)-5-((3,3-difluoro-1-methylpiperidin-4-yl)oxy)-6-methoxyquinazolin-4-amine]
TGA weight loss (%, temp.) ([1]; free base forms, to 70° C.): 7.3 (to 70° C.) %

COc1ccc2ncnc(Nc3ccc(Oc4cc5ncnn5cn4)c(C)c3)c2c1O[C@@H]1CCN(C)CC1(F)F [Freebase Type C, (R)-N-(4-([1,2,4]triazolo[1,5-c]pyrimidin-7-yloxy)-3-methylphenyl)-5-((3,3-difluoro-1-methylpiperidin-4-yl)oxy)-6-methoxyquinazolin-4-amine]
TGA weight loss (%, temp.) ([1]; free base forms, to 150° C.): 1.5 (to 150° C.) %

COc1ccc2ncnc(Nc3ccc(Oc4cc5ncnn5cn4)c(C)c3)c2c1O[C@@H]1CCN(C)CC1(F)F [Freebase Type F, (R)-N-(4-([1,2,4]triazolo[1,5-c]pyrimidin-7-yloxy)-3-methylphenyl)-5-((3,3-difluoro-1-methylpiperidin-4-yl)oxy)-6-methoxyquinazolin-4-amine]
Bulk density [2]: 0.19 g/mL | Carr index [2]: 31.9% | Tapped density [2]: 0.28 g/mL | Angle of repose [3]: 35.8° | Purity/Initial by HPLC area % ([4]; 40° C., 75% RH, open): 100.3% | Form Change ([4]; 40° C., 75% RH, open, by XRPD): No | Purity change by HPLC (chemical stability) compared with amorphous freebase ([4]; 40° C./75% RH): lower purity change | Solid form change by XRPD (physical stability) ([4]; 40° C./75% RH/open): no form change | TGA weight loss (%, temp.) ([1]; free base forms, to 70° C.): 5.7 (to 70° C.) %

COc1ccc2ncnc(Nc3ccc(Oc4cc5ncnn5cn4)c(C)c3)c2c1O[C@@H]1CCN(C)CC1(F)F [Fumarate Type E, (R)-N-(4-([1,2,4]triazolo[1,5-c]pyrimidin-7-yloxy)-3-methylphenyl)-5-((3,3-difluoro-1-methylpiperidin-4-yl)oxy)-6-methoxyquinazolin-4-amine]
Solubility in FaSSIF ([5]; timepoint 1 h): ≥0.36 mg/mL | Solubility in FaSSIF ([5]; timepoint 2 h): ≥0.36 mg/mL | Solubility in FaSSIF ([5]; timepoint 24 h): ≥0.36 mg/mL | Solubility in H2O [6]: ≥5.0 mg/mL | Solubility in pH 4.5 buffer [7]: 1.3 mg/mL | Solubility in pH 6.8 buffer [8]: 0.92 mg/mL | Bulk density [2]: 0.30 g/mL | Carr index [2]: 41.7% | Tapped density [2]: 0.51 g/mL | Angle of repose [3]: 38.3° | Weight change at 80% RH/25° C. by DVS (Hygroscopicity by DVS): 2.1% | XRPD form change after grinding ([9]; grinding ~5 min): No | XRPD form change after tableting ([9]; tableting ~234 Mpa): No | TGA weight loss (150° C., %) ([1]; crystalline salts): 9.4% | TGA weight loss (%, temp.) ([1]; fumarate forms, to 150° C.): 9.4 (to 150° C.) %
